EC50 data for 50 compounds are collected here from patent US12528790B2, “Amide derivative having antiviral activity” (Shionogi & Co., Ltd., priority 2020, dated 2026).

Read-outs that look alike come from different tables or passages of the source.

What is called EC50 is the concentration giving half of the maximal effect.

The test relates to RSV A2 strain. The experiment in a line: In vitro CPE (CytoPathic Effect) inhibition effect evaluation test, RSV type A. Type of test: cell-based. An outline of the steps:
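EC50 is the concentration giving 50% inhibition of virus-induced cytopathic effect, fitted by nonlinear regression from CellTiter-Glo 2.0 viability. Compounds in 3-fold series were co-incubated at 37 °C with HEp-2 cells and RSV: A2 strain for 4 days, B (Wash/18537) for 5 days; uninfected wells served as control.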
In general terms: Damage to the host cells serves as the signal in cytopathic effect assays.

[1] abbreviates: human respiratory syncytial virus, inhibitory effect against RSV type A (RSV A2 strain), HEp-2 cells, CPE inhibition, read-out: EC50.
Setting [2] is: inhibitory effect against RSV type A (RSV A2 strain), HEp-2 cells, CPE inhibition, read-out: EC50.
Setting [3] is: human respiratory syncytial virus, HEp-2.

For `O=C(NC1(C(=O)O)C2CC3CC(C2)CC1C3)c1cnc(N2CC3(CCOCC3)c3cc(OCC(F)(F)F)ccc32)nc1C(F)(F)F` (centres unmarked) [Compound I-381], the EC50 under setting [1] is less than 10 nM. Consider `COc1cccc(COc2ccc3c(n2)C2(CCOCC2)CN3c2ncc(C(=O)NC3(C(=O)O)C4CC5CC(C4)CC3C5)c(C(F)(F)F)n2)c1` (centres unmarked) [Compound I-104], for which, under setting [2], the EC50 is less than 10 nM. On to `O=C(NC1(C(=O)O)C2CC3CC(C2)CC1C3)c1ccc(-c2cn(-c3cncnc3)c3cc(OC4CCN(c5ncccn5)CC4)ccc23)nc1C(F)(F)F` (centres unmarked) [Compound I-196], for which, under setting [1], the EC50 is less than 10 nM. Same read-out and setting: the result for `COc1cccc(C(=O)Nc2ccc3c(c2)CCN3c2ncc(C(=O)NC3(C(=O)O)CCCCC3)c(C(F)(F)F)n2)c1` [Compound I-39] reads 10 to 100 nM; that for `CC(C)(C)C(NC(=O)c1cnc(-c2cn(C3CCC(F)(F)CC3)c3cc(OC4CCN(c5ncccn5)CC4)ccc23)nc1C(F)(F)F)C(=O)O` (racemic) [Compound I-263], less than 10 nM. Same read-out and setting: to `O=C(NC1(C(=O)O)C2CC3CC(C2)CC1C3)c1ccc(-c2cn(CC3CC3)c3cc(OC4CCN(c5ncccn5)CC4)ccc23)nc1C(F)(F)F` (centres unmarked) [Compound I-153] belongs less than 10 nM. `O=C(NC1(C(=O)O)C2CC3CC(C2)CC1C3)c1cnc(N2CC3(CCOCC3)c3cc(Br)ccc32)nc1C(F)(F)F` (centres unmarked) [Compound I-347]: the EC50 under setting [2] was less than 10 nM. Consider `CCNC(=O)N1CCC(Oc2ccc3c(c2)CCN3c2ncc(C(=O)NC3(C(=O)O)CCCCC3)c(C(F)(F)F)n2)CC1` [Compound I-112], for which the EC50 under setting [1] was in the range of 10 to 100 nM. Consider `O=C(NC1(C(=O)O)CCCCC1)c1cnc(N2CC3(CCCCC3)c3cc(OCCC4CCOCC4)ccc32)nc1C(F)(F)F` [Compound I-55], for which the EC50 under setting [1] is less than 10 nM. Regarding `O=C(NC1(C(=O)O)C2CC3CC(C2)CC1C3)c1ccc(-c2cn(CCO)c3cc(OC4CCN(c5ncccn5)CC4)ccc23)nc1C(F)(F)F` (centres unmarked) [Compound I-200], under setting [1], the EC50 was less than 10 nM.

Regarding `CC1CN(c2ncccn2)CCC1Oc1ccc2c(-c3ncc(C(=O)NC4(C(=O)O)C5CC6CC(C5)CC4C6)c(C(F)(F)F)n3)cn(C3CCC(F)(F)CC3)c2c1` (single isomer, unassigned) [Compound I-392], the EC50 under setting [2] was less than 10 nM. `O=C(NC1(C(=O)O)C2CC3CC(C2)CC1C3)c1ccc(-c2cn(C3CCCOC3)c3cc(OC4CCN(c5ncccn5)CC4)ccc23)nc1C(F)(F)F` (racemic) [Compound I-367]: the EC50 under setting [1] was less than 10 nM.

With `O=C(NC1(C(=O)O)C2CC3CC(C2)CC1C3)c1cnc(-c2cn(C3CCC(F)CC3)c3cc(O[C@H]4CC[C@H](N5CC(F)(F)C5)CC4)ccc23)nc1C(F)(F)F` (single isomer, unassigned) [Compound I-510], the EC50 under setting [2] was less than 10 nM. `O=C(NC1(C(=O)O)C2CC3CC(C2)CC1C3)c1cnc(N2CC3(CCOCC3)c3cc(OCC(F)F)ccc32)nc1C(F)(F)F` (centres unmarked) [Compound I-459]: under setting [1], the EC50 is less than 10 nM. For `O=C(NC1(C(=O)O)CCCCC1)c1cnc(N2CCc3cc(OC4CCN(CC(F)(F)F)CC4)ccc32)nc1C(F)(F)F` [Compound I-34], under setting [1], the EC50 is less than 10 nM.

For the compound `CC(=O)N1CCC(Oc2ccc3c(-c4ncc(C(=O)NC5(C(=O)O)C6CC7CC(C6)CC5C7)c(C(F)(F)F)n4)cn(C4CCC(F)(F)CC4)c3c2)CC1` (centres unmarked) [Compound I-247], the EC50 under setting [1] was less than 10 nM. On the same count and under the same terms, the result for `CC(C)(F)c1nc(N2CCc3cc(OCCC4CCOCC4)ccc32)ncc1C(=O)NC1(C(=O)O)C2CC3CC(C2)CC1C3` (centres unmarked) [Compound I-179] reads less than 10 nM; that for `COc1ccc(COc2ccc3c(c2)CCN3c2ncc(C(=O)NC3(C(=O)O)CCOCC3)c(C(F)(F)F)n2)cc1` [Compound I-15], 10 to 100 nM. Same read-out and setting: to `CN(CC(F)(F)F)[C@H]1CC[C@@H](Oc2ccc3c(-c4ncc(C(=O)NC5(C(=O)O)C6CC7CC(C6)CC5C7)c(C(F)(F)F)n4)cn(C4CCC(F)(F)CC4)c3c2)CC1` (some centres unmarked) [Compound I-448] belongs less than 10 nM.

Turning to `O=C(NC1(C(=O)O)C2CC3CC(C2)CC1C3)c1ccc(-c2cn(CC(F)(F)F)c3cc(OC4CCN(c5ncccn5)CC4)ccc23)nc1C(F)(F)F` (centres unmarked) [Compound I-252], the EC50 under setting [1] was less than 10 nM. Same read-out and setting: the result for `O=C(NC1(C(=O)O)C2CC3CC(C2)CC1C3)c1ccc(-c2cn(-c3ccc(F)cn3)c3cc(OC4CCN(c5ncccn5)CC4)ccc23)nc1C(F)(F)F` (centres unmarked) [Compound I-290] reads less than 10 nM.

For `O=C(NC1(C(=O)O)C2CC3CC(C2)CC1C3)c1cnc(-c2cn(C3CCC(F)(F)CC3)c3cc(OC4CCN(CC(F)(F)C(F)F)CC4)ccc23)nc1C(F)(F)F` (centres unmarked) [Compound I-409], the EC50 under setting [1] was less than 10 nM. Consider `CC1CN(c2ncccn2)CCC1Oc1ccc2c(-c3ncc(C(=O)NC4(C(=O)O)C5CC6CC(C5)CC4C6)c(C(F)(F)F)n3)cn(C3CCC(F)(F)CC3)c2c1` (centres unmarked) [Compound I-273], for which the EC50 under setting [1] was less than 10 nM. For `O=C(NC1(C(=O)O)C2CC3CC(C2)CC1C3)c1cnc(-c2cn(C3CCC(F)(F)CC3)c3cc(OC4CCN(C5CCOCC5)CC4)ccc23)nc1C(F)(F)F` (centres unmarked) [Compound I-242], under setting [1], the EC50 is less than 10 nM. On the same count and under the same terms, the result for `O=C(NC1(C(=O)O)C2CC3CC(C2)CC1C3)c1cnc(N2CC3(CCOCC3)c3cc(OCCC(F)(F)F)ccc32)nc1C(F)(F)F` (centres unmarked) [Compound I-442] reads less than 10 nM; that for `Cc1ccc2c(c1)C1(CCN(c3ncccn3)CC1)CN2c1ncc(C(=O)NC2(C(=O)O)C3CC4CC(C3)CC2C4)c(C(F)(F)F)n1` (centres unmarked) [Compound I-139], less than 10 nM; that for `O=C(NC1(C(=O)O)C2CC3CC(C2)CC1C3)c1ccc(N2CCc3cc(OCCC4CCOCC4)cnc32)cc1C(F)(F)F` (centres unmarked) [Compound I-125], 10 to 100 nM. Still for that read-out and setting: the result for `O=C(NC1(C(=O)O)C2CC3CC(C2)CC1C3)c1ccc(-c2cn(CC3COC3)c3cc(OC4CCN(c5ncccn5)CC4)ccc23)nc1C(F)(F)F` (centres unmarked) [Compound I-265] reads less than 10 nM; that for `O=C(NC1(C(=O)O)C2CC3CC(C2)CC1C3)c1cnc(N2CC3(CCCCC3)c3c2ccc(OC2CCN(c4ncccn4)CC2)c3F)nc1C(F)(F)F` (centres unmarked) [Compound I-439], less than 10 nM; that for `O=C(NC1(C(=O)O)C2CC3CC(C2)CC1C3)c1ccc(-c2cn(CC3CC3(F)F)c3cc(OC4CCN(c5ncccn5)CC4)ccc23)nc1C(F)(F)F` (racemic) [Compound I-266], less than 10 nM. In the case of `N#Cc1cccnc1-n1cc(-c2ccc(C(=O)NC3(C(=O)O)C4CC5CC(C4)CC3C5)c(C(F)(F)F)n2)c2ccc(OC3CCN(c4ncccn4)CC3)cc21` (centres unmarked) [Compound I-338], the EC50 under setting [2] was less than 10 nM. Under setting [3], `O=C(NC1(c2nn[nH]n2)CCCCC1)c1cnc(N2CC3(CCOCC3)c3cc(OC4CCN(c5ncccn5)CC4)ccc32)nc1C(F)(F)F` [Compound I-98] displayed an EC50 of less than 10 nM. Regarding `Cc1nsc(COc2ccc3c(c2)CCN3c2ncc(C(=O)NC3(C(=O)O)CCCCC3)c(C(F)(F)F)n2)n1` [Compound I-43], under setting [1], the EC50 lay within 10 to 100 nM. `COc1cc(COc2ccc3c(c2)CCN3c2ncc(C(=O)NC3(C(=O)O)CCCCC3)c(C(F)(F)F)n2)ccn1` [Compound I-27] had an EC50 under setting [3] of 10 to 100 nM.

With `CNc1nc(N2CCc3cc(OCCC4CCOCC4)ccc32)nc(C(F)(F)F)c1C(=O)NC1(C(=O)O)C2CC3CC(C2)CC1C3` (centres unmarked) [Compound I-95], under setting [2], the EC50 is less than 10 nM. Turning to `Cc1ccc2c(c1)C1(CCNCC1)CN2c1ncc(C(=O)NC2(C(=O)O)C3CC4CC(C3)CC2C4)c(C(F)(F)F)n1` (centres unmarked) [Compound I-134], the EC50 under setting [1] was less than 10 nM. On to `O=C(NC1(C(=O)O)C2CC3CC(C2)CC1C3)c1cnc(N2CC3(CCOCC3)c3cc(C4CC4)ccc32)nc1C(F)(F)F` (centres unmarked) [Compound I-115], for which the EC50 under setting [1] is less than 10 nM. On the same count and under the same terms, to `O=C(NC1(C(=O)O)C2CC3CC(C2)CC1C3)c1cnc(N2CC3(CCOCC3)c3cc(OC4CCN(c5ncccn5)CC4)ccc32)nc1C(F)(F)CO` (centres unmarked) [Compound I-205] belongs less than 10 nM; to `CC1(C)CN(c2ncc(C(=O)NC3(C(=O)O)CCCCC3)c(C(F)(F)F)n2)c2ccc(OCCC3CCOCC3)cc21` [Compound I-54], less than 10 nM. The same measure, in the same setting: to `O=C(NC1(C(=O)O)C2CC3CC(C2)CC1C3)c1cnc(N2CCc3cc(OCCC4CCOCC4)ccc32)nc1C(F)(F)C(F)(F)F` (centres unmarked) [Compound I-180] belongs less than 10 nM; to `O=C(NC1(C(=O)O)C2CC3CC(C2)CC1C3)c1cnc(-c2cn(C3CCOCC3)c3cc(OCCC4CCOCC4)ccc23)nc1C(F)(F)F` (centres unmarked) [Compound I-131], less than 10 nM; to `O=C(NC1(C(=O)O)C2CC3CC(C2)CC1C3)c1cnc(N2CC3(CCOCC3)c3cc(-c4ccccc4)ccc32)nc1C(F)(F)F` (centres unmarked) [Compound I-279], less than 10 nM. On the same count and under the same terms, the result for `O=C(NC1(C(=O)O)C2CC3CC(C2)CC1C3)c1cnc(N2CC3(CCOCC3)c3cc(OC4CCN(c5ncc(C(F)(F)F)cn5)CC4)ccc32)nc1C(F)(F)F` (centres unmarked) [Compound I-274] reads less than 10 nM. With `Cn1cc(-n2cc(-c3ccc(C(=O)NC4(C(=O)O)C5CC6CC(C5)CC4C6)c(C(F)(F)F)n3)c3ccc(OC4CCN(c5ncccn5)CC4)cc32)cn1` (centres unmarked) [Compound I-328], under setting [2], the EC50 was less than 10 nM. `O=C(NC1(C(=O)O)C2CC3CC(C2)CC1C3)c1ccc(-c2cn(CC(=O)N3CCOCC3)c3cc(OC4CCN(c5ncccn5)CC4)ccc23)nc1C(F)(F)F` (centres unmarked) [Compound I-149]: the EC50 under setting [1] was less than 10 nM.

Regarding `NCCc1nc(N2CCc3cc(OCCC4CCOCC4)ccc32)nc(C(F)(F)F)c1C(=O)NC1(C(=O)O)C2CC3CC(C2)CC1C3` (centres unmarked) [Compound I-167], the concentration for a half-maximal effect (EC50) under setting [1] was in the range of 100 to 5000 nM. Still for that read-out and setting: the result for `COc1cccnc1N1CCC(Oc2ccc3c(c2)CCN3c2ncc(C(=O)NC3(C(=O)O)CCCCC3)c(C(F)(F)F)n2)CC1` [Compound I-77] reads less than 10 nM. As to `NC(=O)C1(NC(=O)c2cnc(N3CC4(CCNCC4)c4cc(OCCC5CCOCC5)ccc43)nc2C(F)(F)F)C2CC3CC(C2)CC1C3` (centres unmarked) [Compound I-171], the EC50 under setting [3] fell in the range of 10 to 100 nM. On to `O=C(NC1(C(=O)O)C2CC3CC(C2)CC1C3)c1cnc(-n2c3ccccc3c3cc(OCCC4CCOCC4)ccc32)nc1C(F)(F)F` (centres unmarked) [Compound I-141], for which the EC50 under setting [1] was less than 10 nM.

On to `COc1cccc(COc2ccc3c(c2)CCN3c2ncc(C(=O)NC3(C(=O)O)CCOCC3)c(C(F)(F)F)n2)c1` [Compound I-14], for which the EC50 under setting [1] fell in the range of 100 to 5000 nM.
